Literature values, collected in patent US7169819B2, “Pharmaceutical compositions of fenretinide having increased bioavailability and methods of using the same” (Childrens Hospital Los Angeles, priority 2000, dated 2007).

Assays:
[1] = rodents
[2] = background statement

CC1=C(/C=C/C(C)=C/C=C/C(C)=C/C(=O)Nc2ccc(O)cc2)C(C)(C)CCC1 [Fenretinide, all-trans-N-(4-hydroxyphenyl)retinamide]
half-life [1]: 12 to 16 h
Solubility in aqueous solution [2]: minimally soluble
